Laboratory results: ChEMBL document CHEMBL2346633, “Design, synthesis, and binding mode prediction of 2-pyridone-based selective CB2 receptor agonists” (Bioorg Med Chem, 2013)

How the values were obtained:
[1] = target: T1, Cannabinoid receptor 2 (Homo sapiens, UniProt P34972); experiment: Displacement of [H3]-CP-55940 from human recombinant CB2 receptor expressed in CHO cells; format: cell-based
[2] = target: Cannabinoid receptor 1 (Homo sapiens, UniProt P21554); experiment: Displacement of [H3]-CP-55940 from human recombinant CB1 receptor expressed in CHO cells; format: cell-based
Cannabinoid receptor 1, sequence (P21554 whole entry, looked up): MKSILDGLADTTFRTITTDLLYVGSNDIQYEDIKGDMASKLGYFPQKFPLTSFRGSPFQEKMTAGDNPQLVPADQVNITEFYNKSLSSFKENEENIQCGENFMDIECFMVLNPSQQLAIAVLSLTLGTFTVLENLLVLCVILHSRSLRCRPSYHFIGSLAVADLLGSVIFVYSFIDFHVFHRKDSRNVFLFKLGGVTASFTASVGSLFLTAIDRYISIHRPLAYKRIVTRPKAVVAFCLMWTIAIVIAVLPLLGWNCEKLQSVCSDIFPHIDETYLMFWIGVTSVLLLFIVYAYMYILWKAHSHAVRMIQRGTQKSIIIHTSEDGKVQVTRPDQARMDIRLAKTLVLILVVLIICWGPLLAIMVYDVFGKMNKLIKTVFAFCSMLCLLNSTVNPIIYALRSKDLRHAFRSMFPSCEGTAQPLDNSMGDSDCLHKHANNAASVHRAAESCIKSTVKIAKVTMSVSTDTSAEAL

[3] = species: Homo sapiens; experiment: Selectivity ratio of Ki for human recombinant CB1 receptor to Ki for human recombinant CB2 receptor
[4] = target: T1, Cannabinoid receptor 2; experiment: Agonist activity at human recombinant CB2 receptor expressed in CHO cells assessed as inhibition of forskolin-induced accumulation of cAMP; format: functional, cell-based

T1 sequence (P34972 whole entry): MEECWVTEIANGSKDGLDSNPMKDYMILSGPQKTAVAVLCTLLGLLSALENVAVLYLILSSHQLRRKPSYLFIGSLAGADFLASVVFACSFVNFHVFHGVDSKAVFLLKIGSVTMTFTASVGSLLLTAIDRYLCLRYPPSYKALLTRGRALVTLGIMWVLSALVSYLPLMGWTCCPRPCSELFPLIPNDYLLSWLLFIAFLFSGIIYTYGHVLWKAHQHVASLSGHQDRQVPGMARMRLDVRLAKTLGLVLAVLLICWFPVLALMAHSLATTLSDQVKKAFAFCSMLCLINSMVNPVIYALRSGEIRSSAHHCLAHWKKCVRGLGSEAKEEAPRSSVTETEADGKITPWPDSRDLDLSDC

## CCCCn1c(C)c(C)cc(NC(=O)c2cccc(C)c2)c1=O
[1]
  Ki: 42 nM
[2]
  Ki: 343 nM

## CCCCn1c(C)c(C)cc(NC(C)=O)c1=O
[1]
  Ki: > 5000 nM
[2]
  Ki: > 5000 nM

## CCCCCCn1c(C)c(C)cc(Oc2nc3ccccc3o2)c1=S
[1]
  Ki: 609 nM

## CCCn1c(C)c(C)cc(Oc2nc3ccccc3o2)c1=S
[1]
  Ki: 276 nM

## CCCCn1c(C)c(C)cc(NC(=O)c2ccccc2)c1=O
[1]
  Ki: 89 nM
[2]
  Ki: 1380 nM

## CCCCn1c(C)c(C)cc(NC(=O)c2cccc3ccccc23)c1=O
[3]
  Ratio Ki: 1.6
[1]
  Ki: 12 nM
[2]
  Ki: 19 nM

## CCCCCn1c(C)c(C)cc(Oc2nc3ccccc3o2)c1=S
[1]
  Ki: 214 nM

## CCCCn1c(C)c(C)cc(NC(=O)c2ccccc2Cl)c1=O
[2]
  Ki: 391 nM

## CCCCn1ccc(C)c(Oc2nc3ccccc3o2)c1=S
[1]
  Ki: 235 nM

## CCCCn1c(C)c(C)cc(NC(=O)c2ccccc2F)c1=O
[1]
  Ki: 88 nM
[2]
  Ki: 617 nM

## CCCCn1c(C)c(C)cc(Oc2nc3ccccc3o2)c1=O
[1]
  Ki: 976 nM

## CCCCn1cc(C)cc(Oc2nc3ccccc3o2)c1=S
[1]
  Ki: 236 nM

## CCCCn1c(C)c(C)cc(NC(=O)c2ccccc2C)c1=O
[4]
  IC50: 13 nM
[2]
  Ki: 390 nM

## CCN1C(=O)C(Sc2nc3ccccc3o2)c2ccccc2C1C (stereo unspecified)
[1]
  Ki: 42 nM
[2]
  Ki: > 5000 nM

## CCCCn1c(C)c(C)cc(NC(=O)Cc2ccccc2)c1=O
[1]
  Ki: 1310 nM
[2]
  Ki: > 5000 nM

## CN1CCCCC1Cn1cc(C(=O)c2cc([N+](=O)[O-])ccc2I)c2ccccc21 (stereo unspecified)
[3]
  Ratio Ki: 80

## CCCCn1cccc(Oc2nc3ccccc3o2)c1=S
[1]
  Ki: 490 nM

## CCCCn1c(C)c(C)cc(NC(=O)c2ccc(C)cc2)c1=O
[1]
  Ki: 72 nM
[2]
  Ki: 854 nM

## CCn1c(C)c(C)cc(Oc2nc3ccccc3o2)c1=S
[1]
  Ki: 3850 nM

## CCCCn1c(C)c(C)cc(NC(=O)c2ccc3ccccc3c2)c1=O
[1]
  Ki: 768 nM
[2]
  Ki: > 5000 nM
